In publication PMC10447463, “Data-mining unveils structure–property–activity correlation of viral infectivity enhancing self-assembling peptides” (Nature Communications, 2023):
Several values for one entry are separate records, joined by “and”; a condition that tells them apart may be missing. Equal values may be shown once. Read-outs that look alike come from different tables or passages of the source.

How the values were obtained:
[1] = test system: HIV-1 infection of TZM-bl cells; assay: HIV-1 infectivity enhancement assay, β-galactosidase luminescence; type: cell-based; settings: for Rel-to EFC / n-fold to virus: Fig S8 panels B, D; for Log10 Inf. rel. to EF-C: log10 of HIV-1 infection of TZM-bl cells relative to EF-C, Fig S15 source data, asymmetric std dev errors
[2] = type: physicochemical; settings: STD prep
[3] = type: physicochemical
Summary of the method: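 Preformed peptide fibrils (1 mg/mL) mixed with 50 µM ThT in PBS, 15 min at RT, fluorescence ex 440/em 488 nm versus PBS blank, triplicates. Zeta potential: peptides at 1 mg/mL in PBS pH 7.4, aged 1 d at RT, diluted in 1 mM KCl, Smoluchowski from electrophoretic mobility.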

[4] = β-sheet content by ATR-FT-IR; type: physicochemical
Summary of the method: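 1 mg/mL PNF solutions lyophilized and powders measured by diamond ATR FT-IR (2 cm^-1 resolution, 64 scans); β-sheet content calculated per a prior method. For CR, PNF solution centrifuged through 3 kDa MWCO filter (16200 x g, 4 °C, 45 min); filtrate and unfiltered sample lyophilized, dissolved in DMSO, reacted with fluorescamine.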

[5] = Feb2021, Log10 of infectivity relative to EF-C
[6] = Feb2021, figures match the 1.3 µM column
[7] = Feb2021, infectivity enhancement relative to EF-C
[8] = Feb2021, infectivity relative to virus only
[9] = Feb2021, n-fold infectivity relative to EF-C
[10] = Feb2021 run, infectivity n-fold relative to virus alone
[11] = Feb2021 run, log10 of infectivity relative to EF-C
[12] = Feb2021 run, n-fold infectivity relative to EF-C
[13] = infectivity enhancement relative to EF-C
[14] = infectivity n-fold relative to virus alone
[15] = infectivity class (low / medium / high) of each library peptide, main list in c1-c6, same classes repeated in sub-lists of sequences containing the hydrophobicity/charge patterns P+,H0,P+,H0,P0,H0,P0, P+,H0,P0,H0,P0,H0,P0, P+,H0,P0,H0
[16] = ThT fluorescence relative to blank (42.1851851851852 a.u.)
[17] = ThT fluorescence relative to blank, blank = 42.1851851851852
[18] = relative to blank 42.1851851851852 a.u.
[19] = Feb2021, 1.3 µM value relative to virus only (0 µM)
[20] = Feb2021, unrounded values of the 1.3 µM column
[21] = Feb2021, n-fold enhancement relative to EF-C
[22] = infectivity enhancement relative to EF-C (=1), Feb2021 run
[23] = infectivity n-fold relative to virus only, Feb2021 run
[24] = log10 of infectivity relative to EF-C, Feb2021 run
[25] = Feb2021, log10 of infectivity relative to EF-C
[26] = infectivity class (low / medium / high) of the peptide in the sequence-pattern analysis, Fig. S22-A4, class limits not given

Substance | Log10 of Rel to EFC (Feb2021) [1, 5] | n-fold to virus (Feb2021) [1, 8] | Rel-to EFC (Feb-2021) [1, 9] | n-fold to virus (Feb2021) [1, 10] | Log10 of Rel to EFC (Feb2021) [1, 11] | Rel-to EFC (Feb-2021) [1, 12] | Rel-to EFC [1, 13] | n-fold to virus [1, 14] | infectivity [1, 15] | Log10 Inf. rel. to EF-C [1] | TEM: 1= fibrils, 0= aggregates (micelle), 0.5 = aggregates and fibrils, -1 = nothing obersved, STD prep [2] | Tht rel to blank (42.1851851851852) [3, 16] | Tht rel to blank (42.1851851851852) [3, 17] | Tht category (> 1.5 to blank = +) ([3]; category 1/0) | Tht rel to blank (42.1851851851852) [3, 18] | FTIR ß-sheet content/ % ([4]; ATR-FT-IR) | n-fold to virus (Feb2021) [1, 19] | Absolute Infectivity / RLU /s (Feb2021) [1, 20] [RLU /s] | Rel-to EFC (Feb-2021) [1, 21] | FTIR ß-sheet content/ % [4] [%] | further results
CKFKQFFNM [CK14] | -0.3892 | 17.15 | 0.4081 | 17.15 | -0.3892 | 0.4081 | 0.4081 | 17.15 | medium | -0.3892 | 1 | 45.97 | 45.97 | 1 (ThT. Cat is 1, if Rel. ThT >2) | 45.97 | 0% | – | – | – | – | Absolute Infectivity / RLU /s (Feb2021) [1, 6]: 15720 RLU /s; Rel-to EFC (Feb-2021) [1, 7]: 0.4081
CEFEFQFNMWQ [TM140] | -0.8509 | – | 0.141 | – | – | – | – | – | medium | -0.8509 | 1 | 6.057 | – | 1 (ThT. Cat is 1, if Rel. ThT >2) | 6.057 | 51% and 51.48% | 5.923 | 2517 | – | – | Rel-to EFC (Feb-2021) [1, 7]: 0.141
KIKQIINM [JGA2] | -0.3458 | – | – | – | – | – | – | – | medium | -0.3458 | 1 | 1.176 | – | – | – | 44% | – | – | 0.451 | 44 | Rel-to EFC (Feb-2021) [1, 22]: 0.451; n-fold to virus (Feb2021) [1, 23]: 18.95; Log10 of Rel to EFC (Feb2021) [1, 24]: -0.3458
CHLHLQL [CN9] | – | – | 0.09822 | – | – | – | 0.09822 | 4.127 | low | -1.008 | 0.5 | – | – | 1 (ThT. Cat is 1, if Rel. ThT >2) | 3.241 | 49.52% | 4.127 | 2934 | – | – | Log10 of Rel to EFC (Feb2021) [1, 25]: -1.008
CKIKQIINM [BL1] | -0.3035 | 20.89 | 0.4971 | 20.89 | -0.3035 | 0.4971 | – | – | medium | -0.3035 | 1 | 14.67 | 14.67 | 1 (ThT. Cat is 1, if Rel. ThT >2) | 14.67 | 46% | – | – | 0.4971 | 46 | Absolute Infectivity / RLU /s (Feb2021) [1, 6]: 11280 RLU /s
CKIKIQI [MG3b] | 0.008101 | – | 1.019 | 42.81 | 0.008101 | 1.019 | 1.019 | 42.81 | – | 0.0081 | 1 | 3.939 | – | 1 (ThT. Cat is 1, if Rel. ThT >2) | 3.939 | 53% | 42.81 | 19406.66667 | 1.019 | 53 | Rel-to EFC (Feb-2021) [1, 7]: 1.019; Log10 of Rel to EFC (Feb2021) [1, 25]: 0.008101; infectivity [1, 26]: high; Rel-to EFC (Feb-2021) [1, 22]: 1.019; n-fold to virus (Feb2021) [1, 23]: 42.81; Log10 of Rel to EFC (Feb2021) [1, 24]: 0.008101; TEM: 1= fibrils, 0= aggregates (micelle), 0.5 = aggregates and fibrils, -1 = nothing obersved, STD prep ([2]; FigS26): 1
KIKQII [msis21] | -2.308 | 0.2069 | 0.004924 | – | – | – | – | – | – | -2.308 | 0 | 1.001 | 1.001 | 0 (ThT-inactive (N-Fold <2)) | – | 39% and 38.67% | – | – | 0.004924 | 38.67 | Absolute Infectivity / RLU /s (Feb2021) [1, 6]: 100 RLU /s; infectivity [1, 26]: low; Rel-to EFC (Feb-2021) [1, 22]: 0.004924; n-fold to virus (Feb2021) [1, 23]: 0.2069; Log10 of Rel to EFC (Feb2021) [1, 24]: -2.308
QCKFKQFFNMWQ [CK10] | -0.606 | 6.098 | 0.2478 | 6.098 | -0.606 | 0.2478 | 0.2478 | 6.098 | medium | -0.6059 | 0.5 | 25.38 | 25.38 | 1 (ThT. Cat is 1, if Rel. ThT >2) | 25.38 | 42% and 41.78% | – | – | 0.2478 | 41.78 | –
KIKIQI [JJA4] | -1.169 | – | 0.06771 | 2.845 | -1.169 | 0.06771 | – | – | low | -1.169 | 0.5 | 1.097 | – | 0 (ThT-inactive (N-Fold <2)) | 1.097 | 39% and 38.6% | 2.845 | 550 | 0.06771 | 38.6 | –
KFKFQFNMWQ [JG4] | -0.1164 | – | 0.7649 | 32.14 | -0.1164 | 0.7649 | 0.7649 | 32.1399 | high | -0.1164 | 1 | 2.807 | – | 1 (ThT. Cat is 1, if Rel. ThT >2) | 2.807 | 43% and 43.15% | 32.14 | 20676.66667 | 0.7649 | 43.15 | Absolute Infectivity / RLU /s (Feb2021) ([1]; Feb2021 data set, in other rows equals the 1.3 µM column, mean, STD in separate column): 20676.66667 RLU /s; Rel-to EFC (Feb-2021) ([1]; Feb2021 data set, infectivity enhancement relative to EF-C): 0.7649; n-fold to virus (Feb2021) ([1]; Feb2021 data set, infectivity n-fold to virus alone): 32.14; Log10 of Rel to EFC (Feb2021) ([1]; Feb2021 data set, log10 of infectivity relative to EF-C): -0.1164; infectivity [1, 26]: high; TEM: 1= fibrils, 0= aggregates (micelle), 0.5 = aggregates and fibrils, -1 = nothing obersved, STD prep ([2]; TEM): 1; Tht category (> 1.5 to blank = +) ([3]; FigS26): 1 (Tht category (> 1.5 to blank = +)); Tht category (> 1.5 to blank = +) ([3]; category from ThT rel to blank): 1 (ThT. Cat is 1, if Rel. ThT >2)
